Data as given in US9102648B1, “Bioavailable diacylhydrazine ligands for modulating the expression of exogenous genes via an ecdysone receptor complex” (Intrexon Corporation, priority 2003, dated 2015).
Values after ≈ are worked out from the molar mass of the structure shown. Where two headings read alike, the source gives them in different places.

What was measured:
[1] = test system: mutated ecdysone receptor-based gene switch; assay: In vivo SEAP induction, ligand administered in rodent chow; design: species or system C57BL/6 mouse; settings: feed 2 g/kg ad libitum
Method: Applicants' ligands are useful in various applications including gene therapy, expression of proteins of interest in host cells, production of transgenic organisms, and cell-based assays. In vivo induction of a reporter enzyme with various ligands of the present invention was evaluated in a C57BL/6 mouse model system containing a gene switch.
Each element of the gene switch was on a separate plasmid. Receptor expression was under the control of a CMV promoter (SEQ ID NO: 15). Induction was evaluated by the amount of reporter protein expressed in the presence of ligand.
SEAP expression in serum of mice was evaluated after electroporation of the gene switch into mouse quadriceps. Mice were anesthetized with 2 μL/g of a mixture of ketamine (100 mg/mL) and xylazine (20 mg/mL). Animals were then shaved, DNA vectors injected into the muscle in a volume of 2×50 μL polyglutamic acid (12 mg/mL water), electrode conductivity gel applied, and an electrode caliber (1 cm×1 cm; model 384) was placed on hind leg. The muscle was electroporated with 200 V/cm, 8 times, for 20 msec/pulse, at 1 sec time intervals. The transverse electrical field direction was reversed after the animals received half of the pulses. Electroporation was performed with an ECM 830 electroporator from BTX Molecular Delivery Systems.
In some experiments mice received an intraperitoneal injection (IP) of 2.6 μmol of ligand in 50 μL of DMSO 3 days after electroporation of the gene switch. In other experiments the concentration of ligand was decrease to 26 nmol/50 μL of DMSO/mouse. SEAP expression was evaluated 2-11 days after ligand administration. In other experiments ligand was administered in rodent chow. The chow was prepared by dissolving 2 g of ligand in 20 mL of acetone and adding it to 1 kg of LabDiet 5010 autoclavable chow from Purina Mills. This was thoroughly mixed in a Hobart mixer and then mixed for an additional 15 min in a Cross Blend mixer. Animals received chow ad libitum for 1, 2, or 3 days. All values are the average from four animals. Background SEAP in sera from animals treated with vector alone without ligand addition was 0-11 ng/mL serum.
Mouse serum was obtained by centrifugation of blood acquired by retroorbital bleeding with a small glass capillary tube. SEAP quantification was determined using a Clontech Great Escape chemiluminescence kit and by comparison with the Clontech SEAP standard.
Table 11: Induction of SEAP in C57BL/6 mice with GS™-E ligand or RG-103309 administered in rodent chow. SEAP expression in serum of mice was evaluated after electroporation of the gene expression cassettes into mouse quadriceps. Mice received GS™-E ligand or RG-103309 in their feed (2 g/kg) 3 days after electroporation. Feed was administered ad libitum for 1, 2, or 3 days. After each interval ligand-treated feed was removed and animals received untreated feed. Values are the average from 4 animals.

[2] = Partition coefficient Log (D), 1-octanol / pH 7.4 buffer; type: physicochemical; settings: water-saturated 1-octanol / pH 7.4 buffer, room temperature
Method: The partition coefficient, Log (D), between water-saturated 1-octanol and pH 7.4 buffer was determined for the test compounds. The buffer was prepared as described in section 2. A 12 μl aliquot of a 10 mM stock solution in DMSO was introduced to a vial containing 0.60 mL of octanol and 0.60 mL of buffer at room temperature. Testosterone was also added to a final concentration of 100 μM as an internal control. The solution was vortexed for 60 minutes and centrifuged at 10,000 rpm for 10 minutes. The organic and aqueous layers were removed. Serial dilutions of the organic layer were made with 50% methanol except for the initial dilution, which was made in 100% methanol. Serial dilutions of the aqueous layer were made in the pH 7.4 buffer. The diluted samples were then assayed by LC/MS for the compound as well as for testosterone. The Log of the ratio of peak area responses was calculated to obtain the Log (D). Typical Log D values for testosterone are from 3.0-3.3.

[3] = Bi-directional permeability, CACO-2; type: in vitro ADME
Method: (§1) Caco-2 monolayers were grown to confluence on collagen-coated, microporous, polycarbonate membranes in 12-well Costar Transwell plates. Details of the plates and their certification are shown below. The permeability assay buffer was Hank's Balanced Salt Solution containing 10 mM HEPES and 15 mM glucose at a pH of 7.0±0.2. The dosing solution concentration was 10 μM in assay buffer. At each time point, 1 and 2 hours, a 200-μL aliquot was taken from the receiver chamber and replaced with fresh assay buffer. Cells were dosed on the apical side (A-to-B) or basolateral side (B-to-A) and incubated at 37° C. with 5% CO2 and 90% relative humidity. Each determination was performed in duplicate. The important experimental parameters are outlined below. Permeability through a cell-free (blank) membrane was studied to determine non-specific binding and free diffusion of the compound through the device. Lucifer yellow flux was also measured for each monolayer after being subjected to the test compounds to ensure no damage was inflicted to the cell monolayers during the flux period.
(§2) All samples were assayed by LC/MS using electrospray ionization. Typical LC/MS conditions are as follows:
(§3) dCr/dt is the cumulative concentration in the receiver compartment versus time in M s^−1.
(§4) Vr is the volume of the receiver compartment in cm^3.
(§5) Vd is the volume of the donor compartment in cm^3.
(§6) A is the area of the cell monolayer (1.13 cm^2 for 12-well Transwell).
(§7) C0 is the concentration of the dosing solution in M.
(§8) Cr^final is the cumulative receiver concentration in M at the end of the incubation period.
(§9) Cd^final is the concentration of the donor in M at the end of the incubation period.

Caco-2 monolayers = assay: Bi-directional permeability, CACO-2; type: in vitro ADME
Method: as §1, §2, §3, §4, §5, §6, §7, §8, §9

[4] = Determination of water solubility (de-ionized water, LC/MS); settings: kinetic from dmso stock
Method: (§10) Aqueous solutions are prepared as follows in triplicate: 50 μl of a 10,000 ppm solution (2,000 μg of solid dissolved in 200 μl of methanol) of the substrate in methanol or DMSO is added to 1 mL of de-ionized water in a 2 dram or smaller vial with magnetic stirring. Stirring is continued overnight at ambient temperature. The slurry is taken up into a syringe with a luer tip. The contents are passed through a new 13 mm 0.2 ρM Acrodisc filter (tuffryn or glass fiber) into an autosampler bottle. For preparation of calibration standard solutions: dilutions of the 10,000 ppm solution were prepared at 10, 5, 1, 0.5, and 0.2 ppm. […] For more soluble materials, dilution of the samples into this range is preferable to increasing the calibration range because the non-linearity of the response results in less useful calibration curves. However a shift in the range of calibration standards is required for very insoluble compounds.
(§11) Chromatography of the samples was then preformed. For most diacylhydrazines the following conditions were adequate for the measurement. Other columns and gradients may be substituted as appropriate.
(§12) Analysis of the test samples is conducted as follows: Each solubility replicate is analyzed in duplicate. […] Standard curves are obtained from duplicate injections of the standards. The concentration of the substrate is determined by calculation from the equation relating concentration and response.

physchem [5] = settings: pH 7.4, aqueous buffer, thermodynamic from solid
Method: Equilibrium solubility was measured in pH 7.4 aqueous buffer. The buffer was prepared by adjusting the pH of a 0.07 M solution of NaH2PO4 to pH 7.4 with 10 N NaOH. […] At least 1 mg of powder was combined with 1 mL of buffer to make >1 mg/mL mixture. These samples were shaken for ≧2 hours and left to stand overnight at room temperature. The samples were then filtered through a 0.45-μm Nylon syringe filter that was first saturated with the sample. The filtrate was sampled twice, consecutively. The filtrate was assayed by HPLC against standards prepared in methanol.

physchem [6] = settings: water, kinetic from dmso stock
Method: as §10, §11, §12

[7] = Caco-2, pH 7, cell-free (blank) membrane, 10 μM, read-out: Percent Recovery Blank
[8] = human, Caco-2, pH 7, Caco-2, apical-to-basolateral, 10 μM, read-out: Percent Recovery A-to-B
[9] = human, Caco-2, pH 7, Caco-2, basolateral-to-apical, 10 μM, read-out: Percent Recovery B-to-A
[10] = human, Caco-2, pH 7, Papp, A-to-B Avg
[11] = human, Caco-2, pH 7, Papp, A-to-B Rep. 1
[12] = human, Caco-2, pH 7, Papp, A-to-B Rep. 2
[13] = human, Caco-2, pH 7, Papp, B-to-A Avg
[14] = human, Caco-2, pH 7, Papp, B-to-A Rep. 1
[15] = human, Caco-2, pH 7, Papp, B-to-A Rep. 2

| SMILES | Secreted Alkaline Phosphatase Day 2 ([1]; dose period 1 day) | Secreted Alkaline Phosphatase Day 3 ([1]; dose period 1 day) | Secreted Alkaline Phosphatase Day 7 ([1]; dose period 1 day) | Secreted Alkaline Phosphatase Day 2 ([1]; dose period 2 day) | Secreted Alkaline Phosphatase Day 3 ([1]; dose period 2 day) | Secreted Alkaline Phosphatase Day 7 ([1]; dose period 2 day) | Secreted Alkaline Phosphatase Day 2 ([1]; dose period 3 day) | Secreted Alkaline Phosphatase Day 3 ([1]; dose period 3 day) | Secreted Alkaline Phosphatase Day 7 ([1]; dose period 3 day) | Log(D) Octanol/pH 7.4 [2] | recovery at 2 h, 10 μM [3, 7] | recovery at 2 h, 10 μM [3, 8] | recovery at 2 h, 10 μM [3, 9] | solubility kinetic [4] | Papp at 2 h, 10 µM ([3]; Caco-2, pH 7, Papp Blank) | efflux ratio at 2 h, 10 μM ([3]; human, Caco-2, pH 7) | Papp A→B at 2 h, 10 µM [3, 10] | Papp A→B at 2 h, 10 µM [3, 11] | Papp A→B at 2 h, 10 µM [3, 12] | Papp B→A at 2 h, 10 µM [3, 13] | other results |
| --- | --- | --- | --- | --- | --- | --- | --- | --- | --- | --- | --- | --- | --- | --- | --- | --- | --- | --- | --- | --- | --- |
| CCc1c(OC)cccc1C(=O)NN(C(=O)c1cc(C)cc(C)c1)C(C)(C)C [RG-102240, N-(3-methoxy-2-ethylbenzoyl)-N′-(3,5-dimethylbenzoyl)-N′-tert-butylhydrazine] | 7,302 ng/ml mouse sera | 7,670 ng/ml mouse sera | 3,784 ng/ml mouse sera | 13,046 ng/ml mouse sera | 15,831 ng/ml mouse sera | 8,816 ng/ml mouse sera | 8,064 ng/ml mouse sera | 11,392 ng/ml mouse sera | 8,372 ng/ml mouse sera | 3.4 | 78% | 94% | 87% | 9.8 µM (≈ 3.75 µg/mL) | – | – | – | – | – | – | Papp at 2 h, 10 µM ([3]; Caco-2, pH 7, cell-free (blank) membrane, 10 μM, read-out: Papp Blank): 28.4 ×10⁻⁶ cm/s; Papp A→B at 2 h, 10 µM ([3]; human, Caco-2, pH 7, Caco-2, 10 μM, average of 2 replicates, read-out: Papp, A-to-B Avg): 31.8 ×10⁻⁶ cm/s; Papp B→A at 2 h, 10 µM ([3]; human, Caco-2, pH 7, Caco-2, 10 μM, average of 2 replicates, read-out: Papp, B-to-A Avg): 23.5 ×10⁻⁶ cm/s; Papp A→B at 2 h, 10 µM ([3]; human, Caco-2, pH 7, Caco-2, 10 μM, replicate 1, read-out: Papp, A-to-B Rep. 1): 32.3 ×10⁻⁶ cm/s; Papp B→A at 2 h, 10 µM ([3]; human, Caco-2, pH 7, Caco-2, 10 μM, replicate 1, read-out: Papp, B-to-A Rep. 1): 23.3 ×10⁻⁶ cm/s; Papp A→B at 2 h, 10 µM ([3]; human, Caco-2, pH 7, Caco-2, 10 μM, replicate 2, read-out: Papp, A-to-B Rep. 2): 31.4 ×10⁻⁶ cm/s; Papp B→A at 2 h, 10 µM ([3]; human, Caco-2, pH 7, Caco-2, 10 μM, replicate 2, read-out: Papp, B-to-A Rep. 2): 23.7 ×10⁻⁶ cm/s; efflux ratio at 2 h, 10 μM ([3]; human, pH 7, Caco-2 efflux ratio, read-out: Papp B-A / Papp A-B Ratio): 0.7; Absorption Potential (Caco-2 monolayers; classification from Papp(A-to-B)): High (Papp(A-to-B) ≧ 1.0 × 10^−6 cm/s High); Significant Efflux (Caco-2 monolayers; classification from Papp(B-to-A) and ratio): No |
| Cc1cc(C)cc(C(=O)N(NC(=O)c2ccc3c(c2C)OCCO3)C(C)(C)C)c1 [RG-102317, N-(5-methyl-1,4-benzodioxan-6-carbonyl)-N′-(tert-butyl)-N′-(3,5-dimethylbenzoyl)hydrazine] | – | – | – | – | – | – | – | – | – | 3.6 | 87% | 91% | 86% | – | 27.9 ×10⁻⁶ cm/s | 0.8 | 28 ×10⁻⁶ cm/s | 28.6 ×10⁻⁶ cm/s | 27.3 ×10⁻⁶ cm/s | 21.1 ×10⁻⁶ cm/s | solubility (physchem [5]): 4.3 µg/mL (≈ 10.8 µM); solubility kinetic (physchem [6]): 10.1 µM (≈ 4 µg/mL); Papp B→A at 2 h, 10 µM [3, 14]: 21 ×10⁻⁶ cm/s; Papp B→A at 2 h, 10 µM [3, 15]: 21.2 ×10⁻⁶ cm/s; Significant Efflux (Caco-2 monolayers; Caco-2): No |
| CCC(N(NC(=O)c1cccc(C)c1C)C(=O)c1cc(C)cc(C)c1)C(C)(C)C (centres unmarked) [RG-103309, 3,5-dimethyl-benzoic acid N′-(2,3-dimethyl-benzoyl)-N-(1-ethyl-2,2-dimethyl-propyl)-hydrazide] | 9,003 ng/ml mouse sera | 14,850 ng/ml mouse sera | 5,172 ng/ml mouse sera | 6,971 ng/ml mouse sera | 16,518 ng/ml mouse sera | 7,460 ng/ml mouse sera | 11,126 ng/ml mouse sera | 20,373 ng/ml mouse sera | 11,549 ng/ml mouse sera | 3.0 | – | – | – | 2.9 µM (≈ 1.14 µg/mL) | 23.6 ×10⁻⁶ cm/s | 1.3 | 24.5 ×10⁻⁶ cm/s | 25.2 ×10⁻⁶ cm/s | 23.8 ×10⁻⁶ cm/s | 32.5 ×10⁻⁶ cm/s | recovery at 2 h, 10 μM ([3]; Caco-2, pH 7, Percent Recovery Blank): 70%; Papp B→A at 2 h, 10 µM [3, 14]: 32.5 ×10⁻⁶ cm/s; Papp B→A at 2 h, 10 µM [3, 15]: 32.5 ×10⁻⁶ cm/s; recovery at 2 h, 10 μM ([3]; human, Caco-2, pH 7, Percent Recovery A-to-B): 74%; recovery at 2 h, 10 μM ([3]; human, Caco-2, pH 7, Percent Recovery B-to-A): 75%; Significant Efflux (Caco-2 monolayers; Caco-2): No |
